Numbers after ± are expanded uncertainties.
Settings: Crystal; DSC

With `O=C(OOC(=O)c1ccccc1)c1ccccc1` [benzoyl peroxide] the Triple point temperature was 377.75 ± 4.1 K.
